Values joined by “and” are separate entries in the source; they are usually repeats but may differ in a detail not shown here. Equal entries are not always repeated. Where two headings read alike, the source gives them in different places. Marks after values point to notes of the source that are not given here.
What was measured:
DTH response in mice = format: in vivo; settings: for Inhibition of mouse ear swelling: DTH, 24 h after challenge
Description: The anti-inflammatory and anti-allergic effects of compounds 1a and 1c were assessed in a mouse model of skin delayed-type hypersensitivity (DTH) reactions and compared to a vehicle control and to the reference drug dexamethasone. DTH reactions are antigen-specific cell-mediated immune responses, driven primarily by T helper type 1 (Th1) cells, similar to the tuberculin immunization response. The immune reaction induced by an ovalbumin challenge to animals previously sensitized with ovalbumin in Complete Freund's Adjuvant, is characterized by swelling (edema) at the site of challenge, e.g. the mouse ear. Dexamethasone, an anti-inflammatory steroid, reduces cell-mediated immune responses and was employed to validate the responsiveness of the assay to pharmacological treatment.
Female BALB/cJW mice were bred at the University of Lodz, Lodz, Poland and housed in groups of 8 in makrolon cages with a 12 h light-dark cycle. Mice were given free access to food (Agropol S.j., Motycz, Poland) and water.
Sensitization: The protein antigen, ovalbumin, was reconstituted in PBS at 4 mg/ml. An ovalbumin-CFA emulsion was prepared by mixing the protein solution with the CFA suspension at a ratio of 1:1, using two Luer-lock syringes. The emulsion was tested by putting a drop of emulsion onto PBS; if the emulsion remained as a tight droplet on the PBS, the emulsion was deemed ready. Mice were sensitized by subcutaneously injecting 25 μL of emulsion into each side of the tail (100 μg ovalbumin per mouse).
Challenge: On the sixth day after sensitization, DTH was elicited by challenging animals subcutaneously (gauge 30 needle, B. Braun Melsungen, Melsungen, Germany) in the left ears with 10 μL of a 1% suspension of heat-aggregated ovalbumin (HOVA) (100 μg ovalbumin per mouse). The right ears were administered subcutaneously with PBS and served to determine the individual differences in ear thicknesses. HOVA was prepared by heating a 5% solution of ovalbumin in saline for 1 h at 80° C. with occasional swirling. After cooling to room temperature and centrifugation (400 g. 10 min at 4° C.), the pellet was washed twice with saline, resuspended at 2% in PBS and aliquots stored at −30° C. Before injection, HOVA was diluted with an equal volume of PBS and sonicated. Ear thickness was measured with a precise spring-loaded caliper (Art. No. 7309, Mitutoyo, Kawasaki, Japan) before challenge, and 24 h after challenge.
Sensitization, challenge and ear thickness measurement were performed under anesthesia (ketamine 80 mg/kg plus xylazine 8 mg/kg, intraperitoneally).
The anti-inflammatory effects of compounds 1a and 1c were compared to a vehicle control (0.5% methyl cellulose solution) and to the reference drug, dexamethasone. Test compounds were given at 25 or 100 mg/kg orally by gavage (Art. No. 432093, Harvard Apparatus GmbH, March-Hugstetten, Germany) 16 h and 3 h before sensitization and then twice daily with the final dose given 3 h prior to ear challenge (a total of 14 administrations). Dexamethasone was given at 0.1 or 1 mg/kg orally by gavage 3 h before sensitization and once daily with the final dose given 3 h prior to antigen challenge (a total of 7 administrations). All administrations were given in a volume of 10 ml/kg.
To account for individual variability, the increase in right ear thickness, before and 24 h after administration of PBS, was subtracted from the HOVA-induced increase in left ear thickness. The increase in ear thickness was calculated by the difference between ear thickness before and 24 h after antigen challenge. Percent inhibition of ear swelling was calculated according to the following formula: % inhibition=100×(IETvehicle−IETcompound)/IETvehicle where IET=(ET24 hrs pc−ETpredose)HOVA-treated ears−(ET24 hrs pc−ETpredose)PBS-treated ears • (IET, increase ear thickness; ET, ear thickness; pc, post challenge)
Mean and standard deviation (SD) were calculated from individual ear edema values. […]

[1] = system: allergic contact dermatitis response in mice; assay: Allergic contact dermatitis (TDI) model in mice, mouse ear swelling test; format: in vivo
Description: The anti-inflammatory and anti-allergic effects of compounds 1a and 1c were assessed in a mouse model of allergic contact dermatitis, a response driven primarily by T helper type 2 (Th2) cells. […] In this model, an allergic dermatitis response is obtained by sensitizing mice to TDI and subsequently challenging them with antigen by topical administration onto the ears. A quantitative assessment of anti-inflammatory and anti-allergic effects of topically or orally administered test compounds is possible by measuring the resulting ear swelling. The advantages of the allergic contact dermatitis model (Zöllner et al., Bioessays 26:693-6 (2004)) are reproducibility and reliability (>90% of BALB/c mice respond to sensitization), a short induction protocol, quantitative assessment by measuring ear thickness, atopic dermatitis-like skin lesions can be induced, and clinically relevant pharmaceuticals, such as corticosteroids, calcineurin-inhibitors and PDE4-inhibitors, are effective in this model.
Female BALB/c-mice were obtained from Charles River (Sulzfeld, Germany) at age 8 weeks. All animals were housed in groups of eight per cage at 22° C. with a 12 h light/dark-cycle, Water and a standard diet (Altromin, Lage/Lippe, Germany) were available ad libitum. All animals were acclimatized for one week before experimental procedures were commenced.
Experimental procedures for BALB/c mice housing, TDI sensitization and challenge, and measurement of ear thickness were performed as previously described (Baumer et al., J Pharm Pharmacol, 55:1107-1114 (2003)) with the following modifications. For active sensitization, 100 μL of 5% (w/v) TDI was administered to the shaved and stripped abdominal epidermis on day one, and for the next three consecutive days, 50 μL of 5% (My) TDI was applied. The allergic reaction was boosted 21 days later by application of 50 μL of 0.5% (w/v) TDI. For the examination of test compound effects, the left ears were used for the TDI challenge (20 μL of 0.5% in acetone) and ear thickness measured 3 h before and 24 h after challenge.
Group size was n=7 mice unless otherwise stated. Test compounds were freshly prepared before administration.
Administration time: to determine optimal time for administration treatment groups were treated orally by gavage with 100 mg/kg of compound 1a or 1c (suspended in 0.5% tylose, 10 mL/kg) 1, 4 or 16 h before topical TDI challenge. One group was treated with 100 mg/kg miltefosine orally, 16 h before challenge (based on available data for optimal administration time for miltefosine) and vehicle treated mice received tylose (10 mL/kg) orally, 4 h before challenge.
Dose-response: two groups of mice were treated orally with compound 1a at 25 mg/kg or 100 mg/kg suspended in 0.5% tylose, 4 h before topical TDI challenge. Vehicle treated mice received 0.5% tylose orally 4 h before challenge. As a positive control, dexamethasone was administered in saline solution at 1 mg/kg or 3 mg/kg, 2 h and 30 min before challenge and 1 h after challenge. The dose and dosing scheme for dexamethasone was based on previous experience showing a maximal effect in this model.
Compound 1a was administered to two groups of mice topically in 20 μl of a 2% or 6% solution in propyleneglycol. The suspension was heated to 60° C. and mixed using a thermomixer (Eppendorf) until it became clear. The solution was applied, 2 h before topical TDI challenge by administration of 10 μl onto each of the inner and outer surfaces of the left ears. A vehicle group (17=5) was treated with propyleneglycol. As a positive control, diflorasone, diacetate was administered at 0.01% (low dose) and 0.05% (high dose) in 20 μl acetone, 2 h before challenge. A basal control group was left untreated.
Mean and standard error of the mean (SEM) were calculated from individual ear edema values. […]

[2] = system: collagen type II-induced arthritis (CIA); settings: mouse, in vivo
RBL-2H3 cells [3] = assay: Inhibition of mast cell degranulation (β-hexosaminidase release); format: cell-based; settings: Rattus norvegicus, IgE-sensitized RBL-2H3 cells, 1 h with compound, antigen (DNP-HSA) 15 min
Text: Mast cells are key effector cells involved in allergic and inflammatory diseases, and the Rat Basophilic Leukemia clone 2H3 (RBL-2H3) cell line is a commonly used model of allergen dependent immune modulator release (degranulation) in mast cells. On their surface, they express the high affinity receptor for IgE (FcεRI). Upon binding of antigen-specific IgE to the receptor, cells become sensitized to the IgE specific antigen (allergen). When IgE-sensitized cells then encounter multivalent antigen, the antigen clusters IgE-FcεRI complexes and initiates a signal transduction cascade that leads to degranulation, that is, the release of inflammatory mediators, such as cytokines, eicosanoids, histamine and enzymes. The assay can be used as a screening method to identify immune-modulating compounds, in particular compounds useful in the medical management of allergic and inflammatory diseases and asthma, β-hexosaminidase was previously shown to be released with the same kinetics as histamine (Schwartz et al., J Immunology; 123:1445-1450 (1979)), thus offering a simple means to monitor degranulation. […]
MUG substrate solution, 100 μl, were added to supernatant and lysate samples and plates were incubated 30 min at 37° C. […] Fluorescence was measured at 365 nm excitation and 440 nm emission wavelengths. […]

RBL-2H3 cells [4] = assay: Maximum tolerated concentration (cytotoxicity by lactate dehydrogenase release); format: cell-based, Rat
Text: The safety index (SI) of a test compound is the ratio between the maximum tolerated concentration and the IC50 and is used as a measure of the relative safety of the test compound.

spleen and thymus weights [2] | SMILES | Inhibition of mouse ear swelling (DTH response in mice; 0.1 mg/kg orally once daily (7 administrations)) [%] | Inhibition of mouse ear swelling (DTH response in mice; 1.0 mg/kg orally once daily (7 administrations)) [%] | loss in body weight (DTH response in mice; mouse, in vivo, po, 1 mg/kg) [%] | Inhibition of mouse ear swelling ([1]; dose-response study, 1 mg/kg, 2 h and 30 min before and 1 h after challenge) | Inhibition of mouse ear swelling ([1]; dose-response study, 1 mg/kg, 2 h and 30 min before and 1 h after challenge, listed as dexamethasone) [%] | Inhibition of mouse ear swelling ([1]; dose-response study, 3 mg/kg, 2 h and 30 min before and 1 h after challenge) | Inhibition of mouse ear swelling ([1]; dose-response study, 3 mg/kg, 2 h and 30 min before and 1 h after challenge, listed as dexamethasone) [%] | IC50 (RBL-2H3 cells [3]) [µM] | MTC (maximum tolerated concentration) (RBL-2H3 cells [4]; highest concentration not causing cytotoxicity (LDH release), RBL-2H3 cells) [µM] | SI (safety index) (RBL-2H3 cells [4]; ratio between MTC and IC50) | inhibitory efficacy relative to that of 1a at its optimal administration time of 4 h ([1]; 100 mg/kg oral, 16 h before challenge vs 1a 4 h) [%] | inhibitory efficacy relative to that of compound 1c at its optimal administration time of 4 h ([1]; 100 mg/kg oral, 16 h before challenge vs 1c 4 h) [%] | Inhibition of mouse ear swelling ([1]; administration time study, 100 mg/kg oral, 16 h before TDI challenge)
markedly reduced | C[C@@H]1C[C@H]2[C@@H]3CCC4=CC(=O)C=C[C@]4(C)[C@@]3(F)[C@@H](O)C[C@]2(C)[C@@]1(O)C(=O)CO [Dexamethasone, reference compound] | 14 | 53 | 9 | 78.6*** % | 78 | 87.1*** % | 87 | – | – | – | – | – | –
– | CCCCCCCCCCCCCCCCOP(=O)([O-])OCC[N+](C)(C)C [Miltefosine, reference compound] | – | – | – | – | – | – | – | 4.2 | 25 | 6.0 | 64 | 69 | 47% and 47.3^§ %

— patent US11453642B2, “Oxygenated amino- or ammonium-containing sulfonic acid, phosphonic acid and carboxylic acid derivatives and their medical use” (GRI BIO, INC., priority 2011, dated 2022)
